Values of other authors in patent publication US9927424B2, “Assays for identifying compounds that modulate bitter taste” (Chromocell Corporation, priority 2013, dated 2018).

Legend:
Conditions in all cases: PCT/US12/61400; cited from earlier work
[1] = target: T1, TAS2R60 (Homo sapiens, UniProt P59551)
T1 construct: expressed in transfected cells
T1 sequence (P59551 1-318): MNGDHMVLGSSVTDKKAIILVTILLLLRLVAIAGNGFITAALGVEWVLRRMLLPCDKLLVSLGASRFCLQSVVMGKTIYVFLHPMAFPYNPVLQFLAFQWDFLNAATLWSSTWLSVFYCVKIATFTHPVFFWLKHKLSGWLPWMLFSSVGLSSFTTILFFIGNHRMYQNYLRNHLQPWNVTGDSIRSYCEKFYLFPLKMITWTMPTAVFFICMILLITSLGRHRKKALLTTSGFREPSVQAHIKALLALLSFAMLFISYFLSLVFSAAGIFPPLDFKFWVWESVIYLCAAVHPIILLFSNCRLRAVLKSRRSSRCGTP

[2] = target: T2, TAS2R4 (Homo sapiens, UniProt Q9NYW5)
T2 construct: expressed in transfected cells
T2 sequence (Q9NYW5 1-299): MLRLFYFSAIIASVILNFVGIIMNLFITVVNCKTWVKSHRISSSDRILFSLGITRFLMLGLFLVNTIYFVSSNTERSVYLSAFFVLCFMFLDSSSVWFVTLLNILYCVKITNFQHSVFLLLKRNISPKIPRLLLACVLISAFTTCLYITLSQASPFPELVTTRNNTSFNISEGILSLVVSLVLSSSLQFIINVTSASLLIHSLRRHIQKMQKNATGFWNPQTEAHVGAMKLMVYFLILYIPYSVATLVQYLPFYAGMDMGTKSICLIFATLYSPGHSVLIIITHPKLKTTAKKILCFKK

[3] = target: T3, TAS2R9 (Homo sapiens, UniProt Q9NYW1)
T3 construct: expressed in transfected cells
T3 sequence (Q9NYW1 1-312): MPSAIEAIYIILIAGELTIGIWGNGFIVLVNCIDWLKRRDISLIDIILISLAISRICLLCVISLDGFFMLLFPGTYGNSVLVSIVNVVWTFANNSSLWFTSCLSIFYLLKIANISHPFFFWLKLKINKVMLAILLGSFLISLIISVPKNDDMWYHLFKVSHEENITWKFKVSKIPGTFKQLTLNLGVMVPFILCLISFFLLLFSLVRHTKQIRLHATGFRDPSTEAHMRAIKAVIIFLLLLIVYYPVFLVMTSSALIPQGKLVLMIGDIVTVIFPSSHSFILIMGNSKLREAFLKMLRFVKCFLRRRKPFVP

[4] = target: T4, TAS2R13 (Homo sapiens, UniProt Q9NYV9)
T4 construct: expressed in transfected cells
T4 sequence (Q9NYV9 1-303): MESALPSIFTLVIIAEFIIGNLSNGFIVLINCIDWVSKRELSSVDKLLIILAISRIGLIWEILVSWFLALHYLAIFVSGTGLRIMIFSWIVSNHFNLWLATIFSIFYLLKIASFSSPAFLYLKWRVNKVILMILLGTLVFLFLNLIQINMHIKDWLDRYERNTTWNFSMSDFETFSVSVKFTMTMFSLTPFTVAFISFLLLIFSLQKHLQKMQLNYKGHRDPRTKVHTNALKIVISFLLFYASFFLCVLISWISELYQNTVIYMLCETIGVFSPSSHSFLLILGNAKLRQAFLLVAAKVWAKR

[5] = target: T5, TAS2R14 (Homo sapiens, UniProt Q9NYV8)
T5 construct: expressed in transfected cells
T5 sequence (Q9NYV8 1-317): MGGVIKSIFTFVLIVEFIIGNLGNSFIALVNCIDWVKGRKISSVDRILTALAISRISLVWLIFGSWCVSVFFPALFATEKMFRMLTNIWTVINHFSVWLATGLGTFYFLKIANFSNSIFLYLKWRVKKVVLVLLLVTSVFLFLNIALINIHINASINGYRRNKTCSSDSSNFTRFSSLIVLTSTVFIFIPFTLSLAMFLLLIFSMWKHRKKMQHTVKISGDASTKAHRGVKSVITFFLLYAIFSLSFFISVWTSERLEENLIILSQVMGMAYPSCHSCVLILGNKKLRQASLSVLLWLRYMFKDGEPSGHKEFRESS

[Cl-].[K+] [KCl]
specifically respond: TAS2R60 response to stimulation, previously shown [1] | TAS2R4 response to stimulation, previously shown [2] | TAS2R9 response to stimulation, previously shown [3] | TAS2R13 response to stimulation, previously shown [4] | TAS2R14 response to stimulation, previously shown [5]
